The values below come from ChEMBL document CHEMBL1201862, “PubChem BioAssay data set” (2004).

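1) Cells in 96-well plates. 2) Compound, 48 h, 5 concentrations. 3) Linear interpolation between surrounding doses. 4) Unreached endpoint = highest concentration. At the GI50, growth is halved.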 Calls of active or inactive are those of the source. Cut-off read from the data, not from the text of the source: active = GI50 up to about 1.1 µM and inactive = higher.

Holding throughout (test): NCI tumour cell line growth inhibition, 48 h
Assay [1] has as its system CCRF-CEM.
The subject of assay [2] is HCC 2998.
Assay [3] relates to HCT-15.
In assay [4] the test system is HT-29.
For assay [5], the system named is KM12.
The test system of assay [6] is MDA-MB-231.
The subject of assay [7] is MDA-MB-435.
Assay [8] has as its system MDA-N.
The test system of assay [9] is MOLT-4.
Assay [10] has as its system NCI-H522.
Assay [11] relates to OVCAR-3.
In assay [12] the test system is OVCAR-5.
Assay [13] deals with RPMI-8226.
The test system of assay [14] is SF-268.
Assay [15] relates to SF-539.
Assay [16] has as its system SK-MEL-28.
The subject of assay [17] is SN12C.
The subject of assay [18] is SNB-19.
Assay [19] has as its system T47D.
Assay [20] deals with UO-31.

Take `COc1cccc2c1C1(O)C2CCCCCCCCCC12OCCCO2` (stereo not given): the GI50 in assay [1] was 8.32 µM (inactive); in [2] it was > 34.2 µM (inactive); in assay [3], 4.93 µM; in assay [4] it was 10.8 µM (inactive); in assay [5], > 38 µM (inactive); in assay [6], 33 µM (inactive). Besides, the GI50 in [7] is 24.6 µM (inactive); in assay [8], 35.2 µM (inactive); in [9] it was 6.3 µM (inactive); in [10], > 50.2 µM (inactive); in assay [11], > 40.2 µM (inactive); in assay [12], > 40.7 µM (inactive). For the same compound, the GI50 was 7.29 µM (inactive) in assay [13]; 9.82 µM (inactive) in [14]; 8.38 µM (inactive) in [15]; > 100 µM (inactive) in [16]; > 49.7 µM (inactive) in assay [17]; 27.7 µM (inactive) in assay [18]. Besides, the values for the GI50 in assay [19] and in assay [20] were 23.4 µM (inactive) and > 43.3 µM (inactive), respectively.

Take `COC(=O)C1CCC(=O)N1C(c1ccc(OC)cc1)c1cc(OC)c(OC)c(OC)c1` (stereo not given): the GI50 in assay [1] was 0.311 µM (active); in assay [2], 0.249 µM (active); in assay [3], 0.381 µM; in [4], 0.255 µM (active); in assay [5] it was 0.146 µM (active); in assay [6], 3.24 µM (inactive). Further, the GI50 in assay [7] is 0.057 µM (active); in assay [8], 0.104 µM (active); in assay [9], 0.39 µM (active); in assay [10] it was 0.047 µM (active); in assay [11], 0.261 µM (active); in [12], 0.592 µM (active). The GI50 in assay [13] was 0.239 µM (active); in assay [14] it was 0.625 µM (active); in [15] it was 0.274 µM (active); in assay [16] it was > 100 µM (inactive); in assay [17] it was 0.531 µM (active); in assay [18], 0.531 µM (active). The GI50 in [19] was > 100 µM (inactive); in [20], 1.19 µM (inactive).

For the compound `C[n+]1cccc(/C=C/c2ccc3cccc(O)c3n2)c1`, the GI50 in assay [1] is 45.7 µM (inactive); in assay [2] it was > 100 µM (inactive); in assay [3] it was > 100 µM; in assay [4] it was > 100 µM (inactive); in assay [5] it was > 100 µM (inactive); in [6] it was > 100 µM (inactive). Besides, the GI50 is > 100 µM (inactive) in assay [7]; > 100 µM (inactive) in [8]; 54.5 µM (inactive) in assay [9]; 24.8 µM (inactive) in assay [10]; 27 µM (inactive) in [11]; > 100 µM (inactive) in [12]. The GI50 was > 100 µM (inactive) in assay [13]; 26.9 µM (inactive) in assay [14]; 88.1 µM (inactive) in assay [15]; > 100 µM (inactive) in assay [16]; 32.1 µM (inactive) in assay [17]; 42 µM (inactive) in assay [18]. For the same compound, the figures for the GI50 in [19] and in assay [20] were 83.2 µM (inactive) and > 100 µM (inactive), respectively.

Consider `NS(=O)(=O)c1ccc(/N=N/c2c(O)c(C(=O)O)cc3ccccc23)cc1`, for which the GI50 was > 100 µM (inactive) in assay [1]; > 100 µM (inactive) in [2]; > 100 µM in assay [3]; > 100 µM (inactive) in [4]; > 75.7 µM (inactive) in assay [5]; > 100 µM (inactive) in assay [6]. In addition, the GI50 in assay [7] was 45.4 µM (inactive); in assay [8] it was 59.2 µM (inactive); in assay [9], > 100 µM (inactive); in assay [10], > 76.7 µM (inactive); in assay [11], > 100 µM (inactive); in assay [12], > 100 µM (inactive). For the same compound, the GI50 in [13] is > 100 µM (inactive); in assay [14], > 100 µM (inactive); in assay [15], > 100 µM (inactive); in [16], > 93.5 µM (inactive); in assay [17] it was > 100 µM (inactive); in assay [18], 43.1 µM (inactive). Besides, the GI50 in [19] and in [20] was > 100 µM (inactive) each time.

With `C=C(CCC/C(C)=C/C=C/[C@H](C)CCCc1ccoc1)C[C@@H]1OC(=O)[C@H](C)[C@@H]1O`, the GI50 in assay [1] was 11.9 µM (inactive); in assay [2], 10.1 µM (inactive); in [3] it was 11.4 µM; in assay [4], 15.1 µM (inactive); in assay [5] it was 9.79 µM (inactive); in assay [6], 9.89 µM (inactive). Moreover, the GI50 in assay [7] was 9.06 µM (inactive); in assay [8], 9.98 µM (inactive); in [9], 15.3 µM (inactive); in [10], 9.02 µM (inactive); in assay [11], 7.64 µM (inactive); in assay [12], 11 µM (inactive). Moreover, the GI50 is 10.8 µM (inactive) in assay [13]; 9.2 µM (inactive) in assay [14]; 8.63 µM (inactive) in assay [15]; 7.41 µM (inactive) in assay [16]; 8.79 µM (inactive) in [17]; 8.81 µM (inactive) in assay [18]. For the same compound, the GI50 in assay [19] is 6.97 µM (inactive); in assay [20] it was 7.69 µM (inactive).

For the compound `Cc1nc(C)c(N2CCN(S(=O)(=O)N(Cc3ccccc3)Cc3ccccc3)CC2)c(O)n1`, the GI50 in assay [1] was > 100 µM (inactive); in [2], > 100 µM (inactive); in assay [3] it was > 100 µM; in assay [4], > 100 µM (inactive); in assay [5], > 100 µM (inactive); in assay [6], > 35.7 µM (inactive). The GI50 in assay [7] was > 100 µM (inactive); in assay [8], > 100 µM (inactive); in [9] it was > 100 µM (inactive); in assay [10] it was 4.85 µM (inactive); in assay [11], 52.8 µM (inactive); in [12] it was 29.2 µM (inactive). Besides, the GI50 in assay [13] was > 100 µM (inactive); in assay [14] it was 6.85 µM (inactive); in assay [15], 12.5 µM (inactive); in assay [16] it was > 100 µM (inactive); in assay [17], > 100 µM (inactive); in assay [18] it was 8.91 µM (inactive). Also, the GI50 is 24.1 µM (inactive) in assay [19] and > 100 µM (inactive) in assay [20].

In the case of `Clc1nncc2sc(-c3ccccc3)nc12`, the GI50 is 29 µM (inactive) in [1]; 8.45 µM (inactive) in assay [2]; 7 µM in assay [3]; 20.3 µM (inactive) in assay [4]; 28.9 µM (inactive) in assay [5]; 18.6 µM (inactive) in assay [6]. Moreover, the GI50 in [7] is 17.4 µM (inactive); in assay [8] it was 21.6 µM (inactive); in assay [9], 28.8 µM (inactive); in assay [10], 8.73 µM (inactive); in [11] it was 6.41 µM (inactive); in assay [12] it was 83.2 µM (inactive). Besides, the GI50 is 35.4 µM (inactive) in assay [13]; 16.3 µM (inactive) in assay [14]; 27.5 µM (inactive) in [15]; 12.8 µM (inactive) in assay [16]; 21 µM (inactive) in assay [17]; 17.9 µM (inactive) in assay [18]. Also, the GI50 was 28.5 µM (inactive) in [19] and 19.9 µM (inactive) in [20].

As for `COc1cccc(/C=N/n2c(Cc3ccc(Cl)cc3)n[nH]c2=O)c1`, the GI50 in [1] was > 100 µM (inactive); in [2], > 100 µM (inactive); in [3], 99.3 µM; in assay [4], 12.4 µM (inactive); in [5], > 100 µM (inactive); in assay [6], 19.7 µM (inactive). For the same compound, the GI50 was > 100 µM (inactive) in assay [7]; > 100 µM (inactive) in assay [8]; > 100 µM (inactive) in assay [9]; 14.7 µM (inactive) in [10]; > 100 µM (inactive) in [11]; > 78.7 µM (inactive) in [12]. The GI50 was > 77.6 µM (inactive) in assay [13]; 15.9 µM (inactive) in assay [14]; 15.8 µM (inactive) in assay [15]; > 100 µM (inactive) in assay [16]; 24.3 µM (inactive) in assay [17]; 27.3 µM (inactive) in [18]. Also, the GI50 in assay [19] was 16.1 µM (inactive); in [20], > 73.5 µM (inactive).

In the case of `O=C(O)c1c2c(cc3c1CC1(Cc4cc5c(cc4C1=O)CCC5)C3)CCC2` (stereo not given), the GI50 in assay [1] is 46.2 µM (inactive); in assay [2], 51.9 µM (inactive); in assay [3] it was 74.1 µM; in assay [4], > 100 µM (inactive); in assay [5], 89.5 µM (inactive); in assay [6], > 100 µM (inactive). The GI50 in [7] is > 100 µM (inactive); in assay [8], > 100 µM (inactive); in assay [9], 50.8 µM (inactive); in assay [10] it was 76.4 µM (inactive); in [11], 56.4 µM (inactive); in assay [12] it was > 100 µM (inactive). Moreover, the GI50 is > 100 µM (inactive) in assay [13]; > 100 µM (inactive) in assay [14]; > 100 µM (inactive) in assay [15]; 26.9 µM (inactive) in assay [16]; > 100 µM (inactive) in assay [17]; > 100 µM (inactive) in [18]. In addition, the values for the GI50 in assay [19] and in assay [20] were 80 µM (inactive) and > 100 µM (inactive), respectively.

On to `COc1ccc(CNC2=Nc3ccncc3S(=O)(=O)N2c2ccccc2)cc1`, for which the GI50 in assay [1] is 19.4 µM (inactive); in assay [2], 3.77 µM (inactive); in [3] it was 34.3 µM; in assay [4] it was 48.3 µM (inactive); in assay [5] it was 35 µM (inactive); in [6] it was > 100 µM (inactive). Also, the GI50 in [7] is 24.9 µM (inactive); in [8], 29.9 µM (inactive); in [9], 19 µM (inactive); in [10] it was 34.1 µM (inactive); in [11], 82.8 µM (inactive); in assay [12] it was > 100 µM (inactive). The GI50 in [13] was 16.4 µM (inactive); in [14], 52.4 µM (inactive); in assay [15] it was 4.74 µM (inactive); in [16], 21.6 µM (inactive); in assay [17] it was 80.9 µM (inactive); in assay [18] it was > 100 µM (inactive). Besides, the GI50 in assay [19] was 29.3 µM (inactive); in assay [20] it was 45.7 µM (inactive).
